Laboratory results reported in patent publication US20190119282A1, “IMIDAZOPYRIDAZINES USEFUL AS INHIBITORS OF THE PAR-2 SIGNALING PATHWAY” (Vertex Pharmaceuticals Incorporated, priority 2013, published 2019).

Key:
[1] = target: T1, PAR2 (HT-29 cells, SLIGKV activation) (Homo sapiens, UniProt P55085); experiment: Ca FLIPR TETRA assay, ANTAGONIST mode, stimulation with 8 μM SLIGKV; type: cell-based; conditions: HT-29 cells
T1 construct: host or cells: HT-29 cells
T1 sequence (P55085 26-397): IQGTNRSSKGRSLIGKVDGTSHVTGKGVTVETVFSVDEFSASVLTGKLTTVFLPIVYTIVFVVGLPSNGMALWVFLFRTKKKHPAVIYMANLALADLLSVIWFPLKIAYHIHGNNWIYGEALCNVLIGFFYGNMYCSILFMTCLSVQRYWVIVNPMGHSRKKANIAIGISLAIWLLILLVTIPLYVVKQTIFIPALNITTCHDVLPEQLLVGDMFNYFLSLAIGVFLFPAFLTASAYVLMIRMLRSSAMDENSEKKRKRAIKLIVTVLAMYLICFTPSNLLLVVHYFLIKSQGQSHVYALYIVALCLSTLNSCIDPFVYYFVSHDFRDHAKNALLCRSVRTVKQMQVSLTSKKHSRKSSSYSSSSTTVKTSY
Summary of the method: (§1)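 HT-29 cells grown overnight in 1% FBS McCoy's medium were loaded with calcium 5 dye (45 min 37 °C, 15 min r.t.). Compounds were added and Ca2+ read for direct activation, then after 30 min at r.t. cells were stimulated with 8 μM SLIGKV, 1 U/mL thrombin, 3.1 U/mL trypsin or 0.6 μM UTP (final).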

[2] = system: UTP-stimulated Ca2+ response in HT-29 cells; experiment: Ca FLIPR TETRA assay, ANTAGONIST mode, stimulation with 0.6 μM UTP; type: cell-based, human; conditions: Homo sapiens, HT-29 cells
Summary of the method: as §1

[3] = target: T2, PAR2 (HT-29 cells, trypsin activation) (Homo sapiens, UniProt P55085); experiment: Ca FLIPR TETRA assay, ANTAGONIST mode, stimulation with 3.1 U/mL trypsin; type: cell-based; conditions: HT-29 cells
T2 construct: host or cells: HT-29 cells
T2 sequence (P55085 26-397): T1 sequence (P55085 26-397)
Summary of the method: as §1

[4] = system: Thrombin-stimulated Ca2+ response in HT-29 cells; experiment: Ca FLIPR TETRA assay, ANTAGONIST mode, stimulation with 1 U/mL Thrombin; type: cell-based, human; conditions: Homo sapiens, HT-29 cells
Summary of the method: as §1

[5] = stimulation with 3.1 U/mL trypsin
[6] = stimulation with 1 U/mL Thrombin
[7] = antagonist mode, stimulation with 8 μM SLIGKV
[8] = antagonist mode, stimulation with 0.6 μM UTP
[9] = antagonist mode, stimulation with 3.1 U/mL trypsin
[10] = antagonist mode, stimulation with 1 U/mL Thrombin

Structure (SMILES)	IC50 [1, 7] [nM]	IC50 [2, 8] [nM]	IC50 [3, 9] [nM]	IC50 [4, 10] [nM]	also measured
CC(C)c1cc(-c2ccc(F)cc2)nn2cc(C(=O)N3CCN(C(=O)CC4CC4)[C@@H](C)C3)nc12 [Compound I-140]	–	–	–	–	IC50 ([1]; stimulation with 8 μM SLIGKV): 14 nM; IC50 ([2]; stimulation with 0.6 μM UTP): 14000 nM; IC50 [3, 5]: 250 nM; IC50 [4, 6]: 15000 nM
CC(C)c1cc(-c2ccc(Cl)cc2)nn2cc(C(=O)N3CCNC(=O)C3(C)C)nc12 [Compound I-353]	2.4	> 1000	3	> 1000	–
CCc1cc(-c2ccc(F)cc2)nn2cc(C(=O)N3CCN(C(=O)Cc4ccncc4)[C@@H](C)C3)nc12 [Compound I-163]	–	–	–	–	IC50 ([1]; stimulation with 8 μM SLIGKV): 640 nM; IC50 ([2]; stimulation with 0.6 μM UTP): 13000 nM; IC50 [3, 5]: 1700 nM; IC50 [4, 6]: 12000 nM
Cc1n[nH]cc1C(=O)N1CCN(C(=O)c2cn3nc(-c4ccc(F)cc4)cc(C(C)C)c3n2)C(C)(C)C1 [Compound I-304]	40.3	> 1000	54.3	> 1000	–
CC(C)c1cc(C2=CCOCC2)nn2cc(C(=O)N3CCN(C(=O)C4(O)CCC4)CC3(C)C)nc12 [Compound I-44, [6-(3,6-dihydro-2H-pyran-4-yl)-8-isopropyl-imidazo[1,2-b]pyridazin-2-yl]-[4-(1-hydroxycyclobutanecarbonyl)-2,2-dimethyl-piperazin-1-yl]methanone]	–	–	–	–	IC50 ([1]; stimulation with 8 μM SLIGKV): 5000 nM; IC50 ([2]; stimulation with 0.6 μM UTP): > 50000 nM; IC50 [3, 5]: 9500 nM; IC50 [4, 6]: > 50000 nM
Cc1ccc(-c2cc(C(C)(C)C)c3nc(C(=O)N4CCN(c5c[nH]c(C)n5)C(=O)C4(C)C)cn3n2)cc1 [Compound I-368]	5.2	> 1000	6.8	> 1000	–
CC(C)c1cc(-c2ccc(F)cc2)nn2cc(C(=O)N3CCN(C(=O)C4(NC(=O)OC(C)(C)C)CCC4)[C@@H](C)C3)nc12 [Compound I-149]	–	–	–	–	IC50 ([1]; stimulation with 8 μM SLIGKV): 30 nM; IC50 ([2]; stimulation with 0.6 μM UTP): > 50000 nM; IC50 [3, 5]: 57 nM; IC50 [4, 6]: > 50000 nM
CCOC(=O)[C@H]1CCCN(C(=O)c2cn3nc(-c4ccc(F)cc4)cc(C(F)(F)F)c3n2)[C@@H]1C [Compound I-76]	–	–	–	–	IC50 ([1]; stimulation with 8 μM SLIGKV): 3300 nM; IC50 ([2]; stimulation with 0.6 μM UTP): 4400 nM; IC50 [3, 5]: 4800 nM; IC50 [4, 6]: 5500 nM
CC(C)c1cc(-c2ccc(C#N)cc2)nn2cc(C(=O)N3CCN(C(=O)C(C)(C)O)CC3(C)C)nc12 [Compound I-220]	760	> 1000	880	> 1000	–
CC(C)(C)c1cc(-c2ccc(F)cc2)nn2cc(C(=O)N3CCN(C4CC4)C(=O)C3(C)C)nc12 [Compound I-206]	0.8	> 1000	0.8	> 1000	–
CC(C)c1cc(C2=CCCC2)nn2cc(C(=O)N3CCN(C(=O)C4(O)CCC4)CC3(C)C)nc12 [Compound I-43, [6-(Cyclopenten-1-yl)-8-isopropyl-imidazo[1,2-b]pyridazin-2-yl]-[4-(1-hydroxycyclobutanecarbonyl)-2,2-dimethyl-piperazin-1-yl]methanone]	–	–	–	–	IC50 ([1]; stimulation with 8 μM SLIGKV): 480 nM; IC50 ([2]; stimulation with 0.6 μM UTP): 31000 nM; IC50 [3, 5]: 1100 nM; IC50 [4, 6]: 27000 nM
Cc1ccc(-c2cc(C(C)C)c3nc(C(=O)N4CCNC(=O)C4(C)C)cn3n2)cc1 [Compound I-242]	5	> 1000	7.7	> 1000	–
COC(=O)C12CC(C(=O)N3CCN(C(=O)c4cn5nc(-c6ccc(F)cc6)cc(C(C)(C)C)c5n4)C(C)(C)C3)(C1)C2 [Compound I-530]	1.3	500	2.2	410	–
CCc1cc(-c2ccc(F)cc2)nn2cc(C(=O)N3CCN(C(=O)[C@H](O)CC(C)C)[C@@H](C)C3)nc12 [Compound I-169]	–	–	–	–	IC50 ([1]; stimulation with 8 μM SLIGKV): 10 nM; IC50 ([2]; stimulation with 0.6 μM UTP): 26000 nM; IC50 [3, 5]: 17 nM; IC50 [4, 6]: 25000 nM
CC(C)(C)c1cc(-c2ccc(Cl)c(F)c2)nn2cc(C(=O)N3CCN(C(=O)c4ncccn4)CC3(C)C)nc12 [Compound I-456]	0.5	> 1000	0.7	> 1000	–
CC(C)c1cc(-c2ccc(Cl)cc2)nn2cc(C(=O)N3CCN(C(=O)[C@H]4C[C@H](O)C4)CC3(C)C)nc12 [Compound I-540]	4.2	> 1000	8.2	> 1000	–
Cc1ccc(-c2cc(C(C)C)c3nc(C(=O)N4CCN(C(=O)c5cc(C)n[nH]5)CC4(C)C)cn3n2)cc1 [Compound I-330]	1.7	> 1000	1.4	> 1000	–
Cc1cc(-c2cc(C(C)C)c3nc(C(=O)N4CCN(c5cn[nH]c5)C(=O)C4(C)C)cn3n2)ccc1F [Compound I-405]	1.6	> 1000	1.8	> 1000	–
C=CC(=O)N1CCN(C(=O)c2cn3nc(-c4ccc(F)cc4)cc(C(C)C)c3n2)C[C@@H]1C [Compound I-17, 1-[(2S)-4-[6-(4-Fluorophenyl)-8-isopropyl-imidazo[1,2-b]pyridazine-2-carbonyl]-2-methyl-piperazin-1-yl]prop-2-en-1-one]	–	–	–	–	IC50 ([1]; stimulation with 8 μM SLIGKV): 41 nM; IC50 ([2]; stimulation with 0.6 μM UTP): 19000 nM; IC50 [3, 5]: 780 nM; IC50 [4, 6]: 20000 nM
COc1cccc(CC(=O)N2CCN(C(=O)c3cn4nc(-c5ccc(F)cc5)cc(C(C)C)c4n3)C[C@@H]2C)c1 [Compound I-132]	–	–	–	–	IC50 ([1]; stimulation with 8 μM SLIGKV): 3 nM; IC50 ([2]; stimulation with 0.6 μM UTP): > 500 nM; IC50 [3, 5]: 5 nM; IC50 [4, 6]: > 500 nM
CC(C)c1cc(-c2ccc(F)c(F)c2)nn2cc(C(=O)N3CCN(C(=O)[C@H]4C[C@](O)(C(F)(F)F)C4)CC3(C)C)nc12 [Compound I-257]	0.1	> 100	0.2	> 100	–
CC(C)(C)c1cc(-c2ccc(F)cc2)nn2cc(C(=O)N3CCN(C(=O)C4(C(=O)O)CC4)CC3(C)C)nc12 [Compound I-562]	–	–	–	–	IC50 ([1]; antagonist mode, 8 μM SLIGKV): 28 nM; IC50 ([2]; antagonist mode, 0.6 μM UTP): > 1000 nM; IC50 ([3]; antagonist mode, 3.1 U/mL trypsin): 128 nM; IC50 ([4]; antagonist mode, 1 U/mL Thrombin): > 1000 nM

The next lines start with results.

IC50 [1, 7] [nM]	IC50 [2, 8] [nM]	IC50 [3, 9] [nM]	IC50 [4, 10] [nM]	Structure (SMILES)	also measured
2.5	> 1000	8.5	> 1000	CC(C)c1cc(-c2ccc(F)cc2)nn2cc(C(=O)N3CCN(C(=O)c4ncc[nH]4)CC3(C)C)nc12 [Compound I-238]	–
3.9	> 1000	4.6	> 1000	COC(=O)CN1CCN(C(=O)c2cn3nc(-c4ccc(F)cc4)cc(C(C)(C)C)c3n2)C(C)(C)C1=O [Compound I-503]	–
1.8	> 1000	2.2	> 1000	Cc1ccc(-c2cc(C(C)(C)C)c3nc(C(=O)N4CCN(C(=O)c5ccccn5)CC4(C)C)cn3n2)cc1 [Compound I-391]	–
4.6	> 1000	3	> 1000	Cc1ccc(-c2cc(C(C)(C)C)c3nc(C(=O)N4CCN(c5c[nH]cn5)C(=O)C4(C)C)cn3n2)cc1F [Compound I-360]	–
23.3	> 1000	39.5	> 1000	CC(C)c1cc(-c2ccc(F)c(F)c2)nn2cc(C(=O)N3CCN(C(=O)C(C)(C)O)CC3(C)C)nc12 [Compound I-221]	–
205	> 1000	545	> 1000	CC(C)c1cc(-c2cccc(C(F)(F)F)c2)nn2cc(C(=O)N3CCN(C(=O)C(C)(C)O)CC3(C)C)nc12 [Compound I-217]	–
10.3	900	13	1100	Cc1c[nH]nc1C(=O)N1CCN(C(=O)c2cn3nc(-c4ccc(F)cc4)cc(C(C)C)c3n2)C(C)(C)C1 [Compound I-302]	–
16.3	> 1000	23.8	> 1000	CC(C)(C)c1cc(C2CCC(F)(F)CC2)nn2cc(C(=O)N3CCN(c4c[nH]cn4)C(=O)C3(C)C)nc12 [Compound I-430]	–
0.9	> 1000	1.2	> 1000	Cc1ccc(-c2cc(C(C)(C)C)c3nc(C(=O)N4CCN(C(=O)c5ccn[nH]5)CC4(C)C)cn3n2)cc1F [Compound I-424]	–
1.5	> 1000	2.8	> 1000	CC(C)c1cc(-c2ccc(F)cc2)nn2cc(C(=O)N3CCN(C(=O)c4ccon4)CC3(C)C)nc12 [Compound I-321]	–
4.3	> 1000	3	> 1000	COC(=O)C1(C(=O)N2CCN(C(=O)c3cn4nc(-c5ccc(F)cc5)cc(C(C)(C)C)c4n3)C(C)(C)C2)CC1 [Compound I-527]	–
4.2	> 1000	4.2	> 1000	CC(C)(C)c1cc(-c2ccc(F)c(Cl)c2)nn2cc(C(=O)N3CCN(C(=O)[C@H]4CC[C@H](C(=O)O)CC4)CC3(C)C)nc12 [Compound I-488]	–
